The values that follow come from patent US20090280110A1, “Cell Model for Alzheimer's Disease Pathology” (UNIVERSITY OF VIRGINIA PATENT FOUNDATION, priority 2006, published 2009).

Entries after “also recorded” stand apart in the source; their conditions may differ.

Assay [1] concerns microtubules in primary hippocampal neurons. Description: Triton X-100 extraction partitioning soluble and polymerized tubulin, immunoblotting. It counts as cell-based, rat. The conditions noted are these: 2 hours. How it is done: Microtubule Extraction/Blotting: Primary hippocampal neurons were treated with 1-3 μM pre-fibrillar or fibrillar Aβ42. Cells were washed with PBS, and extracted with Triton X-100 in a microtubule stabilizing buffer (Black et al., 1996). Briefly, cells were incubated with PHEM buffer (60 mM PIPES pH 6.9, 25 mM HEPES, 10 mM EGTA, 2 mM MgCl2) with 10 μM taxol, and 0.2% Triton X-100 for 5 minutes. The buffer was collected and centrifuged for 5 minutes at maximum speed in an Eppendorf model 5415 table top centrifuge, and the supernatant removed and added to sample buffer. An equivalent volume of PHEM buffer and sample buffer was added to the dish, and this sample was added to the pellet from the spin. Equal volumes of supernatants and pellets, which respectively contained soluble and polymerized tubulin (Black et al., 1996), were then analyzed by immunoblotting with DM1α monoclonal anti-α-tubulin (Sigma) and monoclonal tau-5. DM1α (Blose et al., 1984) and tau-5 (Loomis et al., 1990) recognize all isoforms or α-tubulin and tau, respectively, independently of post-translational modifications. Quantitation of scanned immunoreactive α-tubulin bands was performed using the public domain image processing software, Image J at the NIH website.
For orientation: In western blotting, separated proteins are transferred to a membrane and probed.

For a further assay, the system named is CV-1 cell microtubules. In words: Time lapse fluorescence microscopy of microtubules in transfected CV-1 cells treated with Aβ. It counts as cell-based, African green monkey. On the procedure:
(§1) Cell Culture: CV-1 (African green monkey kidney) cells were cultured in DMEM (Dulbecco's modified Eagle's Medium; GIBCO) supplemented with 10% Cosmic Calf Serum (Hyclone) and 50 μg/ml gentamycin. Cells were transiently transfected using Fugene (Roche) with cDNAs for the longest human isoform of tau, or the projection domain (amino acids 1-248) of tau linked at their C-terminals to eCFP or eYFP (Clontech); with YFP-α-tubulin (Clontech); or with GFP-MAP2c or GFP-MAP2c/tau chimeras (Roger et al., 2004), which were generous gifts of Dr. Shelley Halpain. Primary cortical neurons were purchased from Genlantis and cultured according to their guidelines. Primary hippocampal neurons (Wisco et al., 2003) were grown for at least 8 days prior to Aβ treatment. The tau siRNA (Darmacon SMARTpool) and control scrambled siRNA (Darmacon non-specific duplex II) were transfected into primary hippocampal neurons using the rat neuron Nucleofection system (Amaxa) and program G-13 (Qiang et al., 2006). Cells were cultured for 4 days after Nucleofection, and then were exposed to Aβ.
Aβ treatment: Previously described methods were used to synthesize (Burdick et al., 1992) and resuspend (Kayed et al., 2003) Aβ42 and Aβ40. The Aβ was added to cells cultured in serum-free DMEM to final concentrations from 0.1-5 μM. Pre-fibrillar Aβ was used in the first and second days following resuspension, while fibrillar Aβ was used following at least 7 days of stirring.
Microscopy: Confocal live cell imaging and immunofluorescence microscopy were performed on a Zeiss Axiovert 100 using Openlab 4.0 (Improvision) software, as previously described (Mateer et al., 2002). For electron microscopy, primary cortical and hippocampal neurons were grown on glass coverslips, treated with Aβ42, and fixed in 2.5% glutaraldehyde+0.5% tannic acid in 0.1 M cacodylate buffer pH 7.4. Cells on coverslips were dehydrated and capsule embedded in EPON, and the glass coverslip was removed from the EPON by alternating liquid nitrogen and warm water submersion of the capsule. Sectioned samples were viewed on a JEOL JEM 1010 electron microscope at 80 kV and images captured using a SA1-12c 16 megapixel cooled CCD (Scientific Instruments and Applications, Inc).

For another assay, the system named is tau. Description: Western blotting with phosphorylation-sensitive anti-tau antibodies (PHF-1, AT180, tau-1). It counts as cell-based. The conditions noted are these: primary rat hippocampal neurons, 1 μM, 2 hours. From the text: Antibodies: Tau-5, Tau-1, and R1 tau were generous gifts of Dr. Lester Binder, and PHF-1 was kindly provided by Dr. Peter Davies. AT180 (Pierce Endogen), DM1α (Sigma Chemical), Actin C4 (Chemicon), fluorescently tagged goat anti-mouse IgG and goat anti-rabbit (Southern Biotech), and HRP-labeled goat anti-mouse IgG (KPL) were acquired from the indicated commercial sources.

Assay [2] relates to primary rat cortical neurons. In words: Immunofluorescence and electron microscopy of neurons treated with Aβ42. It counts as cell-based. The conditions noted are these: 1 μM. How it is done: as §1
Microscopy: Confocal live cell imaging and immunofluorescence microscopy were performed on a Zeiss Axiovert 100 using Openlab 4.0 (Improvision) software, as previously described (Mateer et al., 2002). […]

“fibrillar Aβ42: synthesized Aβ42 peptide used following at least 7 days of stirring” came in with a tubulin polymerized in assay [1] (primary hippocampal neurons, 3 μM, about 90% in cells not exposed) of 65%. Moreover, in the assay on CV-1 cell microtubules (CV-1 cells expressing tau-CFP, as much as 5 μM, more than two hours), the “microtubule integrity in tau-expressing cells” value is “unaffected”. Further, the “microtubules in tau-expressing cells” value with CV-1 cell microtubules (tau-expressing CV-1 cells, 3 μM, 0-140 minutes (FIG. 1c)) was “unaffected”.
Take “pre-fibrillar Aβ42: synthesized Aβ42 peptide used in the first and second days following resuspension; monomers to oligomers”: the “change in tubulin levels in response to Aβ42 in tau siRNA-treated cells” value in assay [1] (primary neurons with tau siRNA, 2 μM, compared to tau expressing cells) is on record as “no change”. Further, in the assay on CV-1 cell microtubules (CV-1 cells co-expressing tau-CFP and YFP-tubulin, 0.1-3 μM), the “time after addition until tau dissociated from microtubules” value lay within 1 to 2 h. In the assay with CV-1 cell microtubules (CV-1 cells co-expressing tau-CFP and YFP-tubulin, within 1-2 hours), the “concentration added to culture media at which tau dissociated from microtubules, which completely disassembled soon thereafter” value fell in the range of 0.1 to 3 µM. In addition, the “microtubule integrity in cells without tau” value in the assay with CV-1 cell microtubules (CV-1 cells expressing YFP-tubulin but not tau-CFP, as much as 3 μM, more than two hours) is on record as “remained intact”. Moreover, in the assay on CV-1 cell microtubules (CV-1 cells with tau-CFP and YFP-tubulin, 1 μM, 0-120 minutes (FIG. 1a)), the “effect on tau and microtubules in tau-expressing cells” value is “caused tau to dissociate from microtubules, and the microtubules to disassemble soon thereafter”. The “microtubules in cells expressing the N-terminal arm (projection domain) of tau coupled to CFP” value in the assay with CV-1 cell microtubules (CV-1 cells, 1 μM) is “depolymerized”. Besides, in the assay on CV-1 cell microtubules (CV-1 cells, 1 μM, less than an hour), the “microtubules in cells expressing GFP-tau chimera” value is recorded as “depolymerized”. In addition, in the assay with CV-1 cell microtubules (CV-1 cells, 1 μM, more than 2 hours), the “microtubules in cells expressing GFP-MAP2c chimera” value is “remained intact”. For the same substance, the “microtubule integrity in cells expressing GFP-MAP2c” value in the assay on CV-1 cell microtubules (CV-1 cells, 1 μM, over 2 hours) is “did not cause any apparent loss of microtubule integrity; also recorded: remained intact”. Further, in the assay on tau, the AD-like tau phosphorylation result is “did not cause increased AD-like tau phosphorylation”. Also, in assay [2] (30 minutes), the “neurite morphology by immunofluorescence” value is on record as “swollen varicosities”. Further, the “neurite microtubules by electron microscopy” value in assay [2] (2 hours) is “fewer, less organized microtubules; also recorded: numerous varicosities that were filled with membrane-bound organelles and lacked microtubules”.
